Patent US20230000848A1, “METHODS OF TREATING NASH” (Gilead Sciences, Inc., priority 2021, published 2023)

Tests used:
[1] = system: liver cytokine levels; assay: Liver cytokine levels by ELISA from liver lysates, GAN mouse model; format: in vivo, mice
Procedure: (§1) The effect of COT inhibitor Compound A, ACC inhibitor Compound B, Cenicriviroc (CVC), and the combination of Compound A and Compound B in the Gubra amylin NASH mouse model (GAN) was determined.

[2] = system: Choline Deficient High Fat Diet (CDHFD) model of fatty liver; assay: Picrosirius red staining (PSR) of liver tissue, rat choline deficient high fat diet (CDHFD) model; format: in vivo, Male Wistar Han Rats; conditions: for fibrosis as measured by PSR, decrease relative to vehicle: vs vehicle group 2
Procedure: Compound A and Compound B were studied in a Choline Deficient High Fat Diet (CDHFD) model as described below. Rats enrolled in this study were first fed a choline deficient high fat diet (CDHFD) for 42 days prior to test article administration Animals were then split into treatment groups 1-8 and test article was administered as detailed in Table 1 for 42 days. [table] Liver tissue obtained at the end of the study was subjected to picrosirius red staining (PSR) was assessed according to standard techniques. Liver hydroxyproline content was measured from cryopowdered liver tissue. Chloramine-T was used to oxidize the free hydroxyproline for the production of a pyrrole. Addition of Ehrlich's reagent results in the formation of a chromophore that can be measured at 550 nm on a spectramax plate reader. FIG. 2 plots the PSR (% area) for control (treatment group 1), start and end for the vehicle (treatment group 2), COT inhibitor (Compound A referred to as TPL2i, 100 mg/Kg QD (low dose), 100 mg/Kg BID (high dose)), ACC inhibitor (Compound B referred to as ACCi, 10 mg/kg QD), and coadministration of Compound B with Compound A (treatment groups 5 and 6). Data in FIG. 2 is based on all animals in the treatment group. In FIG. 2, a higher value for PSR % area is reflective of a higher level of fibrosis.

[3] = system: Choline Deficient High Fat Diet (CDHFD) model of fatty liver; assay: Liver hydroxyproline (OH-P) content, rat CDHFD model; format: in vivo, Male Wistar Han Rats; conditions: 100 mg/Kg PO BID (treatment group 4), 42 days, vs vehicle group 2
Procedure: (§2) Compound A and Compound B were studied in a Choline Deficient High Fat Diet (CDHFD) model as described below. Rats enrolled in this study were first fed a choline deficient high fat diet (CDHFD) for 42 days prior to test article administration Animals were then split into treatment groups 1-8 and test article was administered as detailed in Table 1 for 42 days.
Liver tissue obtained at the end of the study was subjected to picrosirius red staining (PSR) was assessed according to standard techniques. Liver hydroxyproline content was measured from cryopowdered liver tissue. Chloramine-T was used to oxidize the free hydroxyproline for the production of a pyrrole. Addition of Ehrlich's reagent results in the formation of a chromophore that can be measured at 550 nm on a spectramax plate reader.
FIG. 3 plots liver hydroxyproline (OH—P) content from liver tissue for control (treatment group 1), start and end for the vehicle (treatment group 2), COT inhibitor (Compound A referred to as TPL2i, low dose=100 mg/Kg QD, high dose=100 mg/Kg BID), ACC inhibitor (Compound B referred to as ACCi, 10 mg/kg QD), and coadministration of Compound B with Compound A (treatment group 5 (TPL2i low dose+ACCi) and treatment group 6 (TPL2i high dose+ACCi)). Liver hydroxyproline (OH—P) content was calculated from liver tissue samples. […]

[4] = system: liver cytokine levels; assay: Liver cytokine levels by ELISA from liver lysates, rat CDHFD model; format: in vivo, Male Wistar Han Rats; conditions: TPL2i = group 4, TPL2i+ACCi = group 6, vs vehicle
Procedure: as §2

[5] = Body weight, Gubra amylin NASH (GAN) mouse model; format: in vivo, mice; conditions: 60 mg/kg PO BID, after 84 days of dosing
Procedure: as §1
FIG. 5 plots the body weight of treatment group 1 (wt), vehicle (treatment group 2), COT inhibitor (Compound A, 60 mg/kg BID), ACC inhibitor (Compound B, 10 mg/Kg QD), and combination of Compound A and Compound B (treatment group 4) in the Gubra amylin NASH (GAN) mouse model. Cenicriviroc (CVC) used as a control (100 mg/Kg QD).

[6] = Whole body fat mass by ECHO MRI, GAN mouse model; format: in vivo, mice; conditions: 60 mg/kg PO BID, after 84 days of dosing
Procedure: as §1
(§3) FIG. 6 plots the percent fat mass of treatment group 1 (wt), vehicle (treatment group 2), COT inhibitor (Compound A, treatment group 3), ACC inhibitor (Compound B, treatment group 5), and combination of Compound A and Compound B (treatment group 4) in the Gubra amylin NASH (GAN) mouse model. Cenicriviroc (CVC) used as a control (treatment group 6). Fat mass was calculated by ECHO MRI.

[7] = system: Gubra amylin NASH (GAN) mouse model; assay: Picrosirius red staining (PSR) of liver tissue, GAN mouse model; format: in vivo, mice
Procedure: as §1
as §3, with “FIG. 8” for “FIG. 6”, “plots liver fibrosis levels based on” for “plots the”, “percent PSR for” for “percent fat mass of”, “6).” for “6). Fat mass was calculated by ECHO MRI.”

[8] = system: Gubra amylin NASH (GAN) mouse model; assay: Alpha-smooth muscle actin (aSMA) IHC on liver tissue, GAN mouse model; format: in vivo, mice; conditions: treatment group 3 (60 mg/kg BID) vs vehicle group 2, % area IHC
Procedure: as §1
FIG. 9 plots the […] (aSMA) levels from liver tissue of treatment group 1 (wt), vehicle (treatment group 2), COT inhibitor (Compound A, treatment group 3), ACC inhibitor (Compound B, treatment group 5), and combination of Compound A and Compound B (treatment group 4) in the Gubra amylin NASH (GAN) mouse model. Cenicriviroc (CVC) used as a control (treatment group 6). Alpha-smooth muscle actin (aSMA) levels were calculated from % area of alpha-SMA antibody staining on liver tissue (IHC).

[9] = system: Gubra amylin NASH (GAN) mouse model; assay: NAFLD activity score from H&E stained liver sections, GAN mouse model; format: in vivo, mice; conditions: 60 mg/kg BID
Procedure: The effect of COT inhibitor Compound A, ACC inhibitor Compound B, Cenicriviroc (CVC), and the combination of Compound A and Compound B in the Gubra amylin NASH mouse model (GAN) was determined. [table] FIG. 10 plots NAFLD activity score of Compound A (60 mg/kg BID), Compound B (10 mg/Kg QD), CVC (100 mg/Kg QD), and the combination Compound A and Compound B in from liver tissue the Gubra amylin NASH mouse model. CVC=Cenicriviroc, used as a control (100 mg/Kg QD). Individual components comprising the NAFLD score includes hepatocellular ballooning (FIG. 11A), lobular inflammation (FIG. 11B), and steatosis score (FIG. 11C). NAFLD activity score was determined by scoring of steatosis, inflammation, and hepatocyte ballooning from hematoxylin and eosin stained liver sections.

[10] = system: Gubra amylin NASH (GAN) mouse model; assay: Liver total cholesterol, GAN mouse model; format: in vivo, mice; conditions: treatment group 3 (60 mg/kg BID)
Procedure: as §1
FIG. 12 plots the liver total cholesterol levels for treatment group 1 (wt), vehicle (treatment group 2), COT inhibitor (Compound A, treatment group 3), ACC inhibitor (Compound B, treatment group 5), and combination of Compound A and Compound B (treatment group 4) in the Gubra amylin NASH (GAN) mouse model. Cenicriviroc (CVC) used as a control (treatment group 6). Total cholesterol levels were calculated from was measured using commercial kits (Roche Diagnostics) on the cobas c 501 autoanalyzer according to the manufacturer's instructions.

CCCCOCCOc1ccc(-c2ccc3c(c2)/C=C(/C(=O)Nc2ccc([S@@+]([O-])Cc4cncn4CCC)cc2)CCCN3CC(C)C)cc1 [CVC, Cenicriviroc, reference compound]
liver cytokine levels ([1]; treatment group 6 (100 mg/Kg)): Changes in cytokine levels were not observed

Cc1nc(F)ccc1[C@H](Nc1cc(Cl)c2ncc(C#N)c(NCC(C)(C)C)c2c1)c1cn(C2(C(F)F)CC2)nn1 [Compound A]
fibrosis as measured by PSR, decrease relative to vehicle ([2]; 100 mg/Kg PO BID (treatment group 4, TPL2i high dose), 42 days): 55% | fibrosis as measured by PSR, decrease relative to vehicle ([2]; 100 mg/Kg PO QD (treatment group 3, TPL2i low dose), 42 days): 41% | liver fibrosis in PSR stained liver tissue (FIG. 1) compared to vehicle ([2]; treatment group 4 (100 mg/Kg BID) vs vehicle group 2): less liver fibrosis | reduction in liver hydroxyproline compared to vehicle [3]: 38% | liver IL-1b level [4]: statistically significant decreases | liver IL-10 level [4]: statistically significant decreases | liver IL-18 level [4]: statistically significant decreases | liver MIP1-α level [4]: statistically significant decreases | body weight decrease [5]: 16% | fat mass decrease [6]: 31% | fibrosis measured by PSR, decrease compared to vehicle ([7]; 60 mg/kg PO BID (treatment group 3) vs vehicle group 2): 46% | PSR relative to Compound B alone ([7]; BID treatment): reduced PSR | Alpha-smooth muscle actin (aSMA) levels, reduction compared to vehicle [8]: 41% | NAFLD activity score at the end of the study compared to vehicle [9]: more animals had a lower NAFLD activity score | Liver total cholesterol reduction [10]: 40% | liver IL-1β level ([1]; treatment group 3 vs vehicle): statistically significant decreases | liver KC/GRO level ([1]; treatment group 3 vs vehicle): statistically significant decreases | liver MCP-1 level ([1]; treatment group 3 vs vehicle): statistically significant decreases | liver TNF-α level ([1]; treatment group 3 vs vehicle): statistically significant decreases

COc1ccccc1[C@H](Cn1c(=O)n(C(C)(C)C(=O)O)c(=O)c2c(C)c(-c3ncco3)sc21)O[C@H]1CC[C@@H](O)CC1 [Compound B]
PSR reduction ([2]; 10 mg/kg PO QD (treatment group 7), 42 days): 33%
